Source: article PMC8769378, “Underlining the Importance of Peripheral Protic Functional Groups to Enhance the Proton Exchange of Gd-Based MRI Contrast Agents” (Inorganic Chemistry, 2021)
Where two headings read alike, the source gives them in different places. Marks after values point to notes of the source that are not given here.

Key:
[1] = cited from earlier work
[2] = cited from earlier work; remark: listed apart in the source
[3] = Conditional stability constant pGd; type: physicochemical; conditions: pGd = −log[Gd]free, [Gd^3+] = 1 μM, [L] = 10 μM, pH = 7.4; calculated from the constants
[4] = cited from earlier work; remark: listed apart in the source
[5] = cited from earlier work; remark: listed apart in the source
[6] = cited from earlier work; remark: listed apart in the source
[7] = parameters: method as in PMID 18963244, doi:10.1016/0020-1693(96)05094-3; conditions: cited from earlier work
[8] = cited from earlier work; remark: listed apart in the source
[9] = cited from earlier work; remark: listed apart in the source
[10] = Acid-assisted dissociation kinetics of Gd^III complexes followed by ^1H NMR relaxometry; conditions: calculated from acid-assisted dissociation only, pH = 7.4, 298 K; comparators from literature constants
Description: In order to investigate the kinetic inertness of the Gd^III complex, the dissociation reactions of GdL2 were followed by ^1H NMR relaxometry (21 MHz and 298 K) in the presence of large acid excess ([HCl] = 0.01–1.0 M) to guarantee the pseudo-first-order kinetic conditions.
The kinetic inertness of the GdL2 was characterized by the rates of the dissociation reactions taking place in 0.01–1.0 M HCl solution. The dissociation reactions of the GdL2 were followed by measuring the longitudinal relaxation time of H2O protons (T1) with a Stelar relaxometer connected to a Bruker WP80 NMR electromagnet adapted to variable-field measurements (15–80 MHz proton Larmor frequency). The temperature was controlled with a Stelar VTC-91 airflow heater equipped with a calibrated copper–constantan thermocouple (uncertainty of ±0.1 °C). Measures were carried out at 21 MHz and 25 °C. The longitudinal relaxation time (T1) was measured with the “inversion recovery” method (180° – τ – 90°) by using 16 different τ values with a typical 90° pulse width of 6.5 μs, 4 scans. The measurements were performed with a 1 mM solution of the GdL2 complex. The relaxivity values were given as r1 = 1/T1p + 1/T1w where T1p and T1w are the relaxation times of the bulk water protons in the presence and absence of GdL2. The pseudo-first-order rate constants (kd) were calculated by fitting the relaxation rate (r1 = 1/T1p) data to eq 4. […] 4 where rr and rv are the relaxivity values of the reactants and the product (Gd^3+: r1p = 12.85 (2) mM^–1 s^–1, 21 MHz, 25 °C) and rt is the measured relaxivity at reaction time t. The temperature was maintained at 25 °C, and the ionic strength of the solutions was kept constant at [H^+] ≤ 0.15 M, [HCl] + [NaCl] = 0.15 M. The calculation of the kinetic parameters was performed by the fitting of the absorbance–time and relaxation rate–time data pairs with the Micromath Scientist computer program (version 2.0, Salt Lake City, UT).
Kinetic inertness of GdL2
In order to investigate the kinetic inertness of GdL2, the dissociation reactions of GdL2 were followed
by 1H-NMR relaxometry in the presence of large acid excess ([HCl]= 0.01 – 1.0 M) to guarantee the
pseudo-first-order kinetic conditions. The R1obs values as a function of time for the dissociation
In the presence of HCl excess, the dissociation of GdL2 can be treated as a pseudo-first-order process
and the rate of the reaction can be expressed by Eq. (S7)
where kd is a pseudo-first-order rate constant, [GdL]t and [GdL]tot are the concentrations of the GdL
species at time t and the total concentration of the complex, respectively. The rates of the dissociation
reactions were determined at different concentrations of HCl ([HCl]=0.01 – 1.0 M).
The proton assisted dissociation
of GdL2 might occur by the equilibrium formation of a protonated *Gd(H2L2) intermediate (Eq.
(S8)), which dissociates spontaneously (Eq. (S9)).
Gd(HL2) + H Gd(H2L2) (S8)

[11] = cited from earlier work; remark: listed apart in the source
[12] = parameters: method as in PMID 34123071; conditions: 0.15 M NaCl, 298 K ref 7, cited from earlier work; for ^GdLH–1r1^is+os / ^GdLr1^is+os: 20 MHz
[13] = cited from earlier work; for ^298r1-60-MHz: 298 K; for ^310r1-60-MHz: 310 K
[14] = Longitudinal relaxivity r1 and relaxivity vs pH profiles; type: physicochemical; conditions: 21 MHz, 25 °C
Description: The longitudinal relaxivity values (r1) for GdL1 and GdL2, at 20 MHz (0.47 T), 298 K, and pH 7.4, are 4.7 and 5.1 mM^–1 s^–1, respectively. These are typical values of the clinical MRI contrast agents, i.e., low-molecular-weight q = 1 Gd^III chelates that tumble rapidly in solution.[1],[2] In particular, these values compare well with the r1 reported for GdHPDO3A[24] and other HPDO3A-like complexes such as GdHPDO3MA[25] or the series of Gd-hydroxypropylamide-DO3A (HPADO3A, Scheme 1)[7] complexes measured at the same experimental conditions.
At pH >3, the r1 values of GdL2 decrease with the increase of pH from 6.6 mM^–1 s^–1 to reach a plateau of 5.1 mM^–1 s^–1 around pH = 7.5. A further increase of the pH results in the slight increase of r1 reaching a maximum around pH = 9.5. Finally, at pH >9.5, another small decrease in r1 is observed. On the other hand, in the case of GdL1, the r1 values are independent from the pH in the range 4.0–7.5, whereas at pH >8.0, r1 increases up to 5.2 mM^–1 s^–1. The r1 values of GdL1 were measured in the pH range 4–10 in order to avoid the hydrolysis of the methyl ester. […] Then, the overall relaxivity, r1, is given by eq 1: [drawing 1] 1 where r1^is, r1^os, and r1^pr are the relaxivity components due to the inner and outersphere water molecules and the −OH group, respectively. r1^pr can be expressed as follows:[26]−[28] [drawing 2] 2
Proton relaxation measurements (1/T1) and the resulting 1/T1 NMRD profiles were measured on a fast-field cycling (FFC) Stelar SmarTracer relaxometer over a continuum of magnetic field strengths from 0.000 24 to 0.25 T (corresponding to 0.01–10 MHz proton Larmor frequencies). The relaxometer operates under computer control with an absolute uncertainty in 1/T1 of ±1%. […] Furthermore, the real temperature inside the probe head was additionally monitored by a Fluke 52 k/j digital thermometer (Fluke, Zürich, Switzerland). The gadolinium concentration was determined by measuring the bulk magnetic susceptibility shifts of the t-BuOH ^1H NMR signal. Additional data in the 20–120 MHz frequency range were obtained with a high field relaxometer (Stelar) equipped with the HTS-110 3T metrology cryogen-free superconducting magnet. […] The pH-dependent relaxivity measurements of GdL1 and GdL2 complexes were carried out by direct titration of the samples (GdL2, 3.0 < pH < 12.5; GdL1, 4 < pH < 10). The pH was adjusted by the stepwise addition of concentrated NaOH or HCl solution. Calculations were performed with the computer program Micromath Scientist, version 2.0 (Salt Lake City, UT).

[15] = 0.15 M NaCl, 25 °C ref [11] (SI)
[16] = 0.1 M Me4NCl, 25 °C ref [13], [14] (SI)
[17] = I = 0.1 M Me4NCl, 298 K ref 19, 20

O=C(O)CN1CCN(CC(=O)O)CCN(C(CO)C(O)CO)CCN(CC(=O)O)CC1 (stereo not drawn) [BT-DO3A]
CuH2L (log K) ([1]; 0.1 M NaCl, 25 °C ref [5] (SI)): 2.4
CuHL (log K) ([1]; 0.1 M NaCl, 25 °C ref [5] (SI)): 3.8
CuL (log K, stability constant) ([1]; I = 0.1 M NaCl, 298 K ref 15): 19.1
Gd(L)H–1 (log KGd(L)H-1) ([2]; I = 0.1 M NaCl, 298 K ref 15): 9.48
pGd [3]: 15.63 ^h
GdL (log KGdL, stability constant) ([4]; I = 0.1 M NaCl, 298 K ref 15): 18.7
GdH2L (log K, *Gd(H2L) out-of-cage intermediate) ([4]; footnote 0.15 M NaCl, 25 °C ref [5] (SI)): 4.53
CaL (log K, stability constant) ([5]; I = 0.1 M NaCl, 298 K ref 15): 12.1
log K1^H ([6]; I = 0.1 M NaCl, 298 K ref 15): 9.46
log K2^H ([6]; I = 0.1 M NaCl, 298 K ref 15): 9.36
log K3^H ([6]; I = 0.1 M NaCl, 298 K ref 15): 4.17
log K4^H ([6]; I = 0.1 M NaCl, 298 K ref 15): 3.02
log KNa(L) (stability of the Na^+ complex) [7]: 2.32
ZnHL (log K) ([8]; 0.1 M NaCl, 25 °C ref [5] (SI)): 4.3
ZnL (log K, stability constant) ([8]; I = 0.1 M NaCl, 298 K ref 15): 17.0

O=C(O)CN1CCN(CC(=O)O)CCN(CC(=O)O)CCN(CC(=O)O)CC1 [DOTA]
pGd [3]: 22.09 ^h
GdL (log KGdL, stability constant) ([4]; I = 0.1 M NaCl, 298 K ref 22): 24.7
GdH2L (log K, *Gd(H2L) out-of-cage intermediate) ([4]; footnote 0.15 M NaCl, 25 °C ref [16] (SI)): 6.07
log K1^H ([6]; I = 0.1 M NaCl, 298 K ref 22): 9.37
log K2^H ([6]; I = 0.1 M NaCl, 298 K ref 22): 9.14
log K3^H ([6]; I = 0.1 M NaCl, 298 K ref 22): 4.63
log K4^H ([6]; I = 0.1 M NaCl, 298 K ref 22): 3.91
log KNa(L) (stability of the Na^+ complex) [7]: 4.38

O=C([O-])CN1CCN(CC(=O)[O-])CCN(C(CO)C(O)CO)CCN(CC(=O)[O-])CC1.[Gd+3] (stereo not drawn) [GdBT-DO3A]
k1 (acid-catalyzed dissociation rate constant) ([9]; 298 K ref 15): 2.8 × 10^–5 M^–1 s^–1
kd at pH = 7.4 [10]: 1.35 × 10^–12 s^–1

O=C([O-])CN1CCN(CC(=O)[O-])CCN(CC(=O)[O-])CCN(CC(=O)[O-])CC1.[Gd+3] [GdDOTA]
K^HGdL ([9]; 298 K ref 18): 14 M^–1
k1 (acid-catalyzed dissociation rate constant) ([9]; 298 K ref 18): 1.8 × 10^–6 M^–1 s^–1
kd at pH = 7.4 [10]: 7.28 × 10^–14 s^–1

NC(=O)[C@H](O)CN1CCN(CC(=O)[O-])CCN(CC(=O)[O-])CCN(CC(=O)[O-])CC1.[Gd+3] [GdHPADO3A]
k1 (acid-catalyzed dissociation rate constant) ([9]; 298 K ref 7): 1.6 × 10^–4 M^–1 s^–1
kd at pH = 7.4 [10]: 6.41 × 10^–12 s^–1
Δr1 (relaxivity increase) ([11]; from pH 7.4 to 5 ref 7): 5.5 mM^–1 s^–1
kH × 10^–11 [12]: 2.1 M^–1 s^–1
^GdLH–1r1^is+os [12]: 4.32 mM^–1 s^–1
^GdLr1^is+os [12]: 4.57 mM^–1 s^–1
^298r1-60-MHz ([13]; 60 MHz ref 7): 3.6 mM^–1 s^–1
^310r1-60-MHz ([13]; 60 MHz ref 7): 2.9 mM^–1 s^–1
Δ^2 [13]: 8.5 10^19 s^–2
τR [13]: 62 ps
τv [13]: 14 ps
τR(SS) ([13]; determined for qSS = 2 and rSF = 3.5 Å ref 7): 13
τM ([13]; pH 7 ref 7): 20 ns

CC(O)CN1CCN(CC(=O)[O-])CCN(CC(=O)[O-])CCN(CC(=O)[O-])CC1.[Gd+3] (stereo not drawn) [GdHPDO3A]
k1 (acid-catalyzed dissociation rate constant) ([9]; 298 K ref 18): 2.9 × 10^–4 M^–1 s^–1
kd at pH = 7.4 [10]: 1.15 × 10^–11 s^–1
Δr1 (base-catalyzed proton exchange contribution to r1) ([11]; pH > 10 ref 5): 1.2 mM^–1 s^–1
kOH × 10^–10 [12]: 1.0 M^–1 s^–1
^GdLH–1r1^is+os [12]: 4.54 mM^–1 s^–1
^GdLr1^is+os [12]: 4.28 mM^–1 s^–1
^298r1-60-MHz ([13]; 60 MHz ref 24): 4.2 mM^–1 s^–1
^310r1-60-MHz ([13]; 60 MHz ref 24): 3.2 mM^–1 s^–1
Δ^2 ([13]; SAP isomer ref 24): 9.9 10^19 s^–2
τM ([13]; SAP isomer ref 24): 640 ns
τv ([13]; SAP isomer ref 24): 8 ps
Δ^2 ([13]; TSAP isomer ref 24): 1.5 10^19 s^–2
τM ([13]; TSAP isomer ref 24): 8.5 ns
τv ([13]; TSAP isomer ref 24): 30 ps
τR [13]: 65 ps

[Gd+3] [Gd^3+]
r1p [14]: 12.85 (2) mM^–1 s^–1

NC(=O)[C@H](O)CN1CCN(CC(=O)O)CCN(CC(=O)O)CCN(CC(=O)O)CC1 [HPADO3A]
Cu(L)H-1 (log K) [1, 15]: 10.55
CuH2L (log K) [1, 15]: 1.24
CuHL (log K) [1, 15]: 4.00
CuL (log K, stability constant) ([1]; I = 0.15 M NaCl, 298 K ref 7): 21.53
Gd(L)H–1 (log KGd(L)H-1) ([2]; I = 0.15 M NaCl, 298 K ref 7): 6.73
pGd [3]: 16.88 ^h
GdH2L (log K, *Gd(H2L) out-of-cage intermediate) [4, 15]: 5.72
GdL (log KGdL, stability constant) ([4]; I = 0.15 M NaCl, 298 K ref 7): 18.41
Ca(L)H-1 (log K) [5, 15]: 11.50
CaHL (log K) [5, 15]: 4.67
CaL (log K, stability constant) ([5]; I = 0.15 M NaCl, 298 K ref 7): 12.13
log K1^H ([6]; I = 0.15 M NaCl, 298 K ref 7): 8.96
log K2^H ([6]; I = 0.15 M NaCl, 298 K ref 7): 9.07
log K3^H ([6]; I = 0.15 M NaCl, 298 K ref 7): 4.22
log K4^H ([6]; I = 0.15 M NaCl, 298 K ref 7): 2.64
log K5^H ([6]; I = 0.15 M NaCl, 298 K ref 7): 1.25
Zn(L)H-1 (log K) [8, 15]: 10.79 (5)
ZnH2L (log K) [8, 15]: 2.87
ZnHL (log K) [8, 15]: 3.67
ZnL (log K, stability constant) ([8]; I = 0.15 M NaCl, 298 K ref 7): 17.18

CC(O)CN1CCN(CC(=O)O)CCN(CC(=O)O)CCN(CC(=O)O)CC1 (stereo not drawn) [HPDO3A, 10-(2-hydroxypropyl)-1,4,7,10-tetraazacyclododecane-1,4,7-triacetic acid]
CuH2L (log K) [1, 16]: 2.3
CuHL (log K) [1, 16]: 3.72
CuL (log K, stability constant) [1, 17]: 22.84
pGd [3]: 18.16 ^h
GdL (log KGdL, stability constant) [4, 17]: 23.8
GdH2L (log K, *Gd(H2L) out-of-cage intermediate) ([4]; footnote 0.15 M NaCl, 25 °C ref [13], [14] (SI)): 5.10
CaL (log K, stability constant) [5, 17]: 14.83
log K1^H [6, 17]: 11.96
log K2^H [6, 17]: 9.43
log K3^H [6, 17]: 4.30
log K4^H [6, 17]: 3.26
ZnHL (log K) [8, 16]: 3.7
ZnL (log K, stability constant) [8, 17]: 19.37
